Values of other authors as cited in patent US12471592B2, “Cytoprotective compositions for short-term cells storage and transportation without cryopreservation and deep freezing” (priority 2021, dated 2025).
Read-outs that look alike come from different tables or passages of the source.

Tests used:
mouse blastocysts = details: for blastocysts survived: 20% vol/vol CPAs for 40 min at room temperature; for blastocysts subsequently developed: 30% vol/vol CPAs for 10 min at room temperature
mouse morula = details: for minimum concentration giving significant reduction of mouse morula survival: 5 min of 25° C. exposure
[1] = system: vascular endothelial cells; details: for increase of permeability: raising the temperature from 2-4° C. to 22° C.; for Permeability: vascular endothelial cells, 2-4° C.
[2] = system: Chinese hamster ovary cell lines
[3] = system: vascular endothelial cells; details: vitrifying concentrations, 2-4° C. for 9 min
endothelial cells = details: reducing concentration from 3.0 M to 2.0 M
Rat retina cells = details: 24 hr exposure
bacteria = details: 33% DMSO for 10 min
fibroblasts = details: 1% DMSO, within 5 sec
[4] = system: ARPE 19 human retinal pigment epithelial cell line
mouse oocytes = details: increasing molarity
[5] = cytochrome P450 oxidation system added

Compound | blastocysts survived (mouse blastocysts) [%] | minimum concentration giving significant reduction of mouse morula survival (mouse morula) [M] | increase of permeability [1] | Permeability [1] [cm/sec×10^−6] | chromosome damage ([2]; without oxidation system) | blastocysts subsequently developed (mouse blastocysts) [%] | cell survival [3] [%] | other results
CC(O)CCO (stereo not drawn) [1,3-butanediol] | 64.2 | – | – | – | – | – | – | –
OCCO [EG, ethylene glycol] | 95.8 | 7 | nine-fold | 2.0 | No chromosome damage | 74.6 | 33.2 | chromosome damage [2, 5]: substantial chromosome damage
CC(O)C(C)O (stereo not drawn) [BD, 2,3-butanediol] | 8.3 | – | 17 fold | 4.1 | – | 8.7 | 76.3 | factor by which endothelial cell loss was cut (endothelial cells): 35
OCC(O)CO [GLY, glycerol] | 81.7 | 6 | – | – | – | – | – | –
CO [METH, methanol] | – | – | – | – | – | – | – | concentration showing reduced mouse morula survival (mouse morula; 10 min exposure): 6 M; concentrations resulting in protein damage or proteolysis (fish oocytes): above 6 M
C[S+](C)[O-] [DMSO, dimethylsulfoxide] | 96.7 | 5 | 17 fold | 2.4 | No chromosome damage | 25.0 | 37.0 | chromosome damage [2, 5]: not; concentration giving irreversible ultrastructural alterations to rat myocardium (rat myocardium; at 15° C.): above 2.82 M; concentration giving irreversible ultrastructural alterations to rat myocardium (rat myocardium; at 30° C.): above 1.41 M; concentrations giving dose-dependent reduction in rat heart rate (rat heart rate): above 0.14 M; concentration at which apoptosis was exhibited (Rat retina cells): ≥ 0.1 % vol/vol; factor by which endothelial cell loss was cut (endothelial cells): 3; increase in mutagenicity (bacteria): 10 fold; increase of intracellular calcium (fibroblasts): two- to six-fold
O=c1c(O)c(-c2ccc(O)c(O)c2)oc2cc(O)cc(O)c12 [quercetin] | – | – | – | – | – | – | – | level of ROS ([4]; compared with the control groups, 300 μM H2O2): decreased; cell viability ([4]; pretreated with quercetin (0.80 μM) before exposure to 300 μM H2O2): preserved in quercetin group in a dose dependent manner, particularly at 20 μM
CC(O)CO (stereo not drawn) [PG, propylene glycol] | 87.5 | 4 | 13 fold | 3.0 | substantial chromosome damage | 2.1 | 63.6 | concentration impairing the developmental potential of mouse zygotes by decreasing intracellular pH (mouse zygotes): > 2.5 M; formaldehyde increase relative to DMSO or GLY (mouse oocytes): more than 30 fold
